{"source": "patent US20160045531A1", "about": "“COMBINATION THERAPY FOR TREATING CANCER” (EPIZYME, INC., priority 2014, published 2016)", "key": {"[1]": {"test_system": "acute leukemia lines bearing MLL translocations", "details": "sparing lines without MLL gene translocations; cited from earlier work"}, "MOLM-13 cells [2]": {"test_system": "MOLM-13 cells", "test": "CD11b and CD14 expression by flow cytometry, MOLM-13", "type": "cell-based, human", "method": "(§1) On Day 0 MOLM-13 cells are seeded at 3,000 cells/mL. On Day 7 and Day 10 MOLM-13 cells are counted and reseeded at 50,000 cells/mL. […] On Day 10 They were redosed again. On Day 14 the experiment was terminated.\nThe cells were prepared by washing twice in PBS, followed by fixation in 4% formaldehyde for ten minutes at 37° C. After fixation cells were washed and blocked with blocking buffer for 10 minutes at room temperature. Cells were then incubated in presence of anti-CD14, anti-CD11b or anti-IgG antibody for 1 hour at room temperature while rotating. Cells were washed, re-suspended in PBS and 5,000 events were analyzed using ExpressPro software on the GuavaCyte Plus System."}, "H3K79me2": {"test_system": "H3K79me2", "details": "cited from earlier work"}, "[3]": {"test_system": "SKM-1 (non-MLL-rearranged AML)", "test": "Combination proliferation study with Compound A2 (Examples 2/3), SKM-1", "type": "cell-based, human", "method": "(§2) The HP-D300 digital dispenser (Tecan) was used to dispense compounds in a combinatorial matrix. […] Cell viability was measured via ATP content using CellTiter-Glo® (Promega).\n(§3) Viability was determined using CellTiter-Glo® (Promega)."}, "[4]": {"test_system": "rat xenograft model of MLL-rearranged leukemia", "details": "cited from earlier work"}, "MOLM-13 cells [5]": {"test_system": "MOLM-13 cells", "test": "Flow cytometric analysis of cell cycle and Annexin V, MOLM-13", "type": "cell-based, human", "details": "for Apoptosis induction over 14 day course, single agent / Sub-G1 cell population, single agent: 156 nM Compound A2 or 63 nM Ara-C; for Sub-G1 cell population, single agent: 14 day treatment", "method": "as §1\nTo evaluate the fraction of cells in each cell cycle, flow cytometric analysis was performed. FACS analysis for detection of cell death by apoptosis, and cell cycle was performed.\nSamples were analyzed using the Guava EasyCyte Plus System (Millipore). Cells for cell cycle analysis were pelleted by centrifugation at 200×g for 5 minutes at 4° C., washed twice with ice cold PBS then fixed with 70% ice cold ethanol. All samples were analyzed together at end of experiment. Following fixation cells were washed with PBS and stained with the Guava cell cycle reagent (Millipore 4500-0220) for 30 minutes. Samples were analyzed using the Guava EasyCyte Plus System (Millipore)."}, "SKM-1 cells": {"test_system": "SKM-1 cells", "test": "Proliferation assay and calculation of synergism (Example 5), SKM-1", "details": "non-MLL-rearranged leukemia cell line SKM-1", "source_text": "The acute myelogenous leukemia cell line MV4-11 (MLL-AF4) (CRL-9591) was obtained from American Type Culture Collection (ATCC), Manassas, Va. and both MOLM-13 (MLL-AF9) (ACC 554) and SKM-1 (ACC 547) cells were obtained from Leibniz Institute DSMZ-German Collection of Microorganisms and Cell Cultures, Braunschweig, Germany. MV4-11 cells were maintained in IMDM supplemented with 10% fetal bovine serum. MOLM-13 and SKM-1 cells were maintained in Roswell Park Memorial Institute medium (RPMI) supplemented with 10% fetal bovine serum. They were cultured in flasks or plates in a humidified 5% CO2 atmosphere.\n(§4) Proliferation studies were performed using MOLM-13, MV4-11 and SKM-1 cell lines in vitro to evaluate the cancer cell killing effect of a combination of two agents together on cell growth. Initial proliferation studies were performed to determine the IC50 values of a given compound in each cell line. The cell counts were measured by ATP quantitation using the Promega Cell Titer Glo kit and luminescence values correspond to the amount of ATP in a given well.\n(§5) These studies were performed to evaluate both the combinatorial effect of compounds on cell killing and the durability of the effect by washing out one of the agents.\n(§6) Compounds evaluated for synergy in the co-treatment phase were tested in a range which was bracketed around the IC50's. The compounds were plated to a 96 well plate in a matrix format which includes increasing concentrations of each drug in the combination in a constant ratio, in addition to the effect of each compound alone in the study. […] Maximum and minimum inhibition (DMSO alone) controls were used in each plate to calculate fraction affected (Fa) of a test well. DMSO concentration was kept at 0.1% v/v. The drug combination analysis was performed utilizing the Chou-Talalay method. Synergy was determined using the software package Calcusyn by Biosoft. The combination index (CI) is the term used to describe the level of synergy or antagonism in a given test system. A combination index less than one indicates synergy, and a CI greater than one indicates antagonism.\n(§7) The drug combination analysis was performed using the Chou-Talalay method. Graphs representing values of combination index (CI) versus Fractional effect (Fa) known as Fa-CI plots were generated and synergy was evaluated. Drug synergy was statistically defined by CI values less than 1, antagonism by CI>1 and additive effect by CI equal to 1."}, "[6]": {"test_system": "MV4-11 (MLL-AF4) cell line", "test": "Combination proliferation study with Compound A2 (Example 1), MV4-11", "type": "cell-based, human", "details": "7 Day Cotreatment; Chou-Talalay CI", "description": "The acute myelogenous leukemia cell lines MV4-11 (MLL-AF4) and MOLM-13 (MLL-AF9) were obtained from American Type Culture Collection (ATCC; Rockville, Md.) and Deutsche Sammlung von Mikroorganismen and Zellkulturen (DSMZ; Braunschweig, Germany) respectively. […] Further, strong synergism is achieved when the CI value falls below 0.3."}, "MV4-11 (MLL-AF4)": {"test_system": "MV4-11 (MLL-AF4)", "test": "Proliferation assay and calculation of synergism (Example 5), MV4-11", "type": "cell-based, human", "details": "7 Day Cotreatment Model; Chou-Talalay CI", "procedure": "MV4-11 cells were maintained in IMDM supplemented with 10% fetal bovine serum. […] They were cultured in flasks or plates in a humidified 5% CO2 atmosphere.\nas §4, §5, §6, §7"}, "[7]": {"test_system": "MV4-11 (MLL-AF4 expressing acute biphenotypic leukemia cell line)", "test": "Combination proliferation study with Compound A2 (Examples 2/3), MV4-11", "type": "cell-based, human", "details": "in combination with Compound A2; Chou-Talalay CI", "method": "as §2, §3"}, "MOLM-13 cells [8]": {"test_system": "MOLM-13 cells", "test": "Pre-treatment model with reverse order of addition (Ara-C first), MOLM-13", "type": "cell-based, human", "details": "Ara-C 3 days", "method": "MOLM-13 cells were pretreated with 9 concentrations of Ara-C or DMSO for 3 days.\nCell viability was measured via ATP content using CellTiter-Glo® (Promega).\nIn addition, the effect of sequence of addition of compounds was studied by measuring the ten day proliferation of cells pretreated with Ara-C in a 3+7 model. This experiment was performed by first pretreating MOLM-13 cells with increasing concentrations of Ara-C for 3 days."}}, "data": [{"smiles": "CC(C)N(C[C@H]1O[C@@H](n2cnc3c(N)ncnc32)[C@H](O)[C@@H]1O)[C@H]1C[C@@H](CCc2nc3cc(C(C)(C)C)ccc3[nH]2)C1", "note": "[Compound A2, (2R,3R,4S,5R)-2-(6-amino-9H-purin-9-yl)-5-((((1r,3S)-3-(2-(5-(tert-butyl)-1H-benzo[d]imidazol-2-yl)ethyl)cyclobutyl) (isopropyl)amino)methyl) tetrahydrofuran-3,4-diol]", "values": [{"measurement": "Cell killing in vitro", "setting": "[1]", "value": "promoted cell killing"}, {"measurement": "Differentiation markers CD11b and CD14, single agent", "setting": "MOLM-13 cells [2]", "value": "time and concentration dependent up-regulation"}, {"measurement": "Inhibition of intracellular DOT1L activity (H3K79 methylation)", "setting": "H3K79me2; across a spectrum of AML cell lines", "value": "concentration-dependent inhibition of H3K79 methylation"}, {"measurement": "Time for H3K79me2 to return to pretreatment levels after the latency period", "setting": "H3K79me2; after the 3-day latency period", "value": 4, "unit": "days"}, {"measurement": "Period without recovery of H3K79 methylation after wash out", "setting": "H3K79me2; after wash out of Compound A2", "value": 3, "unit": "days"}, {"measurement": "Depletion of cellular levels of H3K79me2", "setting": "H3K79me2; four days of treatment", "value": "> 80", "unit": "%"}, {"measurement": "Single agent antiproliferative effect in SKM-1", "setting": "[3]; non-rearranged SKM-1 cell line", "value": "no effect alone"}, {"measurement": "Tumor response in xenograft", "setting": "[4]", "value": "sustained tumor regressions"}, {"measurement": "EC50", "setting": "MOLM-13 cells [5]; Homo sapiens, 168 h, MOLM-13, single agent, 7 days, Annexin-V staining, read-out: Midpoint value (EC50) of decrease in total content of viable cells", "value": "364 ± 18", "unit": "nM"}, {"measurement": "Apoptotic cells (Annexin-V staining), single agent", "setting": "MOLM-13 cells [5]; MOLM-13, after 7 days of treatment", "value": "concentration-dependent increase in apoptotic cells"}, {"measurement": "Apoptosis induction over 14 day course, single agent", "setting": "MOLM-13 cells [5]; MOLM-13", "value": "much more robust induction of apoptosis"}, {"measurement": "Sub-G1 cell population, single agent", "setting": "MOLM-13 cells [5]; MOLM-13", "value": "moderate, time-dependent increase in sub-G1 population"}, {"measurement": "Single agent antiproliferative activity in SKM-1", "setting": "SKM-1 cells", "value": "no single agent activity"}]}, {"smiles": "Nc1ccn([C@@H]2O[C@H](CO)[C@@H](O)[C@@H]2O)c(=O)n1", "note": "[Ara-C, cytarabine]", "values": [{"measurement": "Differentiation markers CD11b and CD14, combination with Compound A2", "setting": "MOLM-13 cells [2]", "value": "time and concentration dependent up-regulation"}, {"measurement": "Differentiation markers CD11b and CD14, single agent", "setting": "MOLM-13 cells [2]", "value": "time and concentration dependent up-regulation"}, {"measurement": "Combination effect with Compound A2 on proliferation, MV4-11", "setting": "[6]", "value": "Synergy (A combination index less than one indicates synergy)"}, {"measurement": "Combination with Compound A2, MV4-11 (MLL-AF4)", "setting": "MV4-11 (MLL-AF4)", "value": "Strong Synergy"}, {"measurement": "Combination studies with Compound A2, MV4-11 MLL-AF4", "setting": "[7]", "value": "Strong"}, {"measurement": "Combination studies with Compound A2, SKM-1 AML: Non-rearranged", "setting": "[3]; in combination with Compound A2", "value": "No Combination"}, {"measurement": "Combination with Compound A2, Ara-C pretreatment then cotreatment", "setting": "MOLM-13 cells [8]; then Compound A2 and Ara-C 7 days", "value": "Synergy"}, {"measurement": "Combination with Compound A2, Ara-C pretreatment then washout", "setting": "MOLM-13 cells [8]; washed out, then Compound A2 7 days", "value": "Combination benefit is maintained"}, {"measurement": "Apoptosis induction over 14 day course, single agent", "setting": "MOLM-13 cells [5]; MOLM-13", "value": "modest increase in apoptotic cell population"}, {"measurement": "Apoptosis induction over 14 day course, combination with Compound A2", "setting": "MOLM-13 cells [5]; MOLM-13, 156 nM Compound A2 plus 63 nM Ara-C", "value": "enhance apoptosis"}, {"measurement": "Sub-G1 cell population, combination with Compound A2", "setting": "MOLM-13 cells [5]; MOLM-13, 156 nM Compound A2 plus 63 nM Ara-C, 10 and 14 days", "value": "significant increase in the population of sub-G1 cells"}, {"measurement": "Sub-G1 cell population, single agent", "setting": "MOLM-13 cells [5]; MOLM-13", "value": "minimal effect"}]}]}
